Measurements published in ChEMBL document CHEMBL5247604, “Discovery of novel hybrids containing clioquinol-1-benzyl-1,2,3,6-tetrahydropyridine as multi-target-directed ligands (MTDLs) against Alzheimer's disease” (Eur J Med Chem, 2022).
Activity calls are given as the source filed them. The rule behind the calls is not given here.

What was measured:
Acetylcholinesterase = Acetylcholinesterase (Electrophorus electricus, UniProt O42275); test: Inhibition of electric eel AChE using acetylthiocholine iodide as substrate preincubated for 15 mins followed by substrate addition by Ellman's method
[1] = biological target: T1, Amyloid-beta precursor protein (Homo sapiens, UniProt P05067); test: Inhibition of Cu2+ induced amyloid beta (1 to 42 ) (unknown origin) aggregation incubated for 24 hr by Thioflavin T based fluorometric assay
[2] = biological target: T1, Amyloid-beta precursor protein; test: Inhibition of Cu2+ induced amyloid beta (1 to 42 ) (unknown origin) aggregation assessed as reduction in fibrils incubated for 24 hr by TEM analysis
[3] = biological target: T1, Amyloid-beta precursor protein; test: Inhibition of amyloid beta (1 to 42 ) (unknown origin) self aggregation incubated for 24 hr by Thioflavin T based fluorometric assay
[4] = Metal chelating activity assessed as Cu2+-compound complex formation by measuring red shift in presence of CuSO4 at 40 uM incubated for 30 mins by UV-Visible spectrophotometry
[5] = Metal chelating activity assessed as Fe2+-compound complex formation by measuring red shift in presence of FeSO4 at 40 uM incubated for 30 mins by UV-Visible spectrophotometry
[6] = Metal chelating activity assessed as Fe3+-compound complex formation by measuring red shift in presence of FeCl3 at 40 uM incubated for 30 mins by UV-Visible spectrophotometry
[7] = Metal chelating activity assessed as Zn2+-compound complex formation by measuring red shift in presence of ZnCl2 at 40 uM incubated for 30 mins by UV-Visible spectrophotometry
[8] = Metal chelating activity assessed as Al3+-compound complex formation by measuring blue shift in presence of AlCl3 at 40 uM incubated for 30 mins by UV-Visible spectrophotometry

T1 sequence (P05067 whole entry): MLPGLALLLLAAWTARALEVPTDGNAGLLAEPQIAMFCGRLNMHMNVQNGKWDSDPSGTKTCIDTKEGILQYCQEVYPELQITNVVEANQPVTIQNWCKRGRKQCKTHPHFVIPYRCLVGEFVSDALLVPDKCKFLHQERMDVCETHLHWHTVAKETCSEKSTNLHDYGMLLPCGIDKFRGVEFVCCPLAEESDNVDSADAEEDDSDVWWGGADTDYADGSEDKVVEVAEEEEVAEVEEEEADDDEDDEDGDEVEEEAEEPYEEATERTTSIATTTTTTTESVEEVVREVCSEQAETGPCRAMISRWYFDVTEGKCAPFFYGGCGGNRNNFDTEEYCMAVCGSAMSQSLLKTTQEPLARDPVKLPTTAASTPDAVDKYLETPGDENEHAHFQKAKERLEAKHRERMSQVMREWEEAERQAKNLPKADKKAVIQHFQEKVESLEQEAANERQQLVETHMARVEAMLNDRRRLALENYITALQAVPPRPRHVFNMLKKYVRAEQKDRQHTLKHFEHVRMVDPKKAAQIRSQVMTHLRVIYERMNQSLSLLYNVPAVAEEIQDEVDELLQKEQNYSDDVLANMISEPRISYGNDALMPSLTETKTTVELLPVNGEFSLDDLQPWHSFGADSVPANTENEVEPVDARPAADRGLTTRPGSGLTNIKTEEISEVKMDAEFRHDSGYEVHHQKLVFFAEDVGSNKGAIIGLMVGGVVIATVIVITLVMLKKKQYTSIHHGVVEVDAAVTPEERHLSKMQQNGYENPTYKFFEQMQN
Chain of Acetylcholinesterase (O42275 whole entry): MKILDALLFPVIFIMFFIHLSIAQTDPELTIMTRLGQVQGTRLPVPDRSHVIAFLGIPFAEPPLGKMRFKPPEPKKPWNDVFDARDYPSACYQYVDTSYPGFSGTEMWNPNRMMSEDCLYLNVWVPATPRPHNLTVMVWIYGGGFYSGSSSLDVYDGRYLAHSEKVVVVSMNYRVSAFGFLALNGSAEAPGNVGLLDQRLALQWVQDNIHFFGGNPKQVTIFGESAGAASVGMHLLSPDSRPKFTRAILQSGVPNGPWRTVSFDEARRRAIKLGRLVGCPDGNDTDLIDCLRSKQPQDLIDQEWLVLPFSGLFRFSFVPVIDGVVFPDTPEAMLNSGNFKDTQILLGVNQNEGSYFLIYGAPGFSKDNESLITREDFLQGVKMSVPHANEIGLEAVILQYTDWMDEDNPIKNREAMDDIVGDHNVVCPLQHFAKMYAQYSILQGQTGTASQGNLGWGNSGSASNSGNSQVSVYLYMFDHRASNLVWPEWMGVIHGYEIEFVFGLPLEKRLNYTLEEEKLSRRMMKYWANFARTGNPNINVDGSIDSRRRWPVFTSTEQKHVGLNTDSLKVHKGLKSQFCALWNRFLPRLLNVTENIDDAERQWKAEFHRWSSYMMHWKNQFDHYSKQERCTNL

Structure (SMILES) | IC50 (Acetylcholinesterase) | further results
Oc1c(Cl)cc(Cl)c2ccc(/C=C/C3=CCN(Cc4ccccc4Br)CC3)nc12 | 540 nM | –
Oc1c(Cl)cc(Cl)c2ccc(/C=C/C3=CCN(Cc4ccc(Cl)cc4)CC3)nc12 | 620 nM | –
Oc1cccc2ccc(/C=C/C3=CCN(Cc4ccccc4Cl)CC3)nc12 | 1290 nM | –
Oc1c(Cl)cc(Cl)c2ccc(/C=C/C3=CCN(Cc4cccc(F)c4)CC3)nc12 | 520 nM | –
Cc1ccccc1CN1CC=C(/C=C/c2ccc3cccc(O)c3n2)CC1 | 400 nM | –
Oc1cccc2ccc(/C=C/C3=CCN(Cc4cccc(C(F)(F)F)c4)CC3)nc12 | 550 nM | –
Oc1c(Cl)cc(Cl)c2ccc(/C=C/C3=CCN(Cc4ccc(C(F)(F)F)cc4)CC3)nc12 | 280 nM | –
Oc1c(Cl)cc(Cl)c2ccc(/C=C/C3=CCN(Cc4cccc(Br)c4)CC3)nc12 | 320 nM | –
Oc1c(Cl)cc(Cl)c2ccc(/C=C/C3=CCN(Cc4ccc(Br)cc4)CC3)nc12 | 640 nM | –
Oc1cccc2ccc(/C=C/C3=CCN(Cc4ccccc4F)CC3)nc12 | 570 nM | –
Cc1cccc(CN2CC=C(/C=C/c3ccc4cccc(O)c4n3)CC2)c1 | 430 nM | –
Oc1cccc2ccc(/C=C/C3=CCN(Cc4ccc(Br)cc4)CC3)nc12 | 260 nM | –
Cc1ccccc1CN1CC=C(/C=C/c2ccc3c(Cl)cc(Cl)c(O)c3n2)CC1 | 560 nM | –
Cc1ccc(CN2CC=C(/C=C/c3ccc4c(Cl)cc(Cl)c(O)c4n3)CC2)cc1 | 540 nM | –
Oc1c(Cl)cc(Cl)c2ccc(/C=C/C3=CCN(Cc4cccc(C(F)(F)F)c4)CC3)nc12 | 700 nM | –
Oc1c(Cl)cc(Cl)c2ccc(/C=C/C3=CCN(Cc4ccccc4Cl)CC3)nc12 | 410 nM | –

Structure (SMILES) | IC50 (Acetylcholinesterase) | further results
Oc1cccc2ccc(/C=C/C3=CCN(Cc4ccccc4)CC3)nc12 | 1110 nM | –
Oc1cccc2ccc(/C=C/C3=CCN(Cc4ccc(C(F)(F)F)cc4)CC3)nc12 | 320 nM | –
Oc1cccc2ccc(/C=C/C3=CCN(Cc4ccc(F)cc4)CC3)nc12 | 1660 nM | –
Oc1c(Cl)cc(Cl)c2ccc(/C=C/C3=CCN(Cc4ccccc4F)CC3)nc12 | 290 nM | –
Oc1cccc2ccc(/C=C/C3=CCN(Cc4cccc(Br)c4)CC3)nc12 | 1530 nM | –
Oc1c(Cl)cc(Cl)c2ccc(/C=C/C3=CCN(Cc4ccccc4C(F)(F)F)CC3)nc12 | 340 nM | –
Oc1cccc2ccc(/C=C/C3=CCN(Cc4cccc(Cl)c4)CC3)nc12 | 750 nM | –
Cc1ccc(CN2CC=C(/C=C/c3ccc4cccc(O)c4n3)CC2)cc1 | 260 nM | –
Oc1c(Cl)cc(Cl)c2ccc(/C=C/C3=CCN(Cc4ccccc4)CC3)nc12 | 2310 nM | –
Oc1cccc2ccc(/C=C/C3=CCN(Cc4ccc(Cl)cc4)CC3)nc12 | 3050 nM | –
Oc1c(I)cc(Cl)c2cccnc12 | – | inhibition [1]: Active; inhibition [2]: Active; inhibition [3]: inactive
Oc1cccc2ccc(/C=C/C3=CCN(Cc4cccc(F)c4)CC3)nc12 | 720 nM | –
Cc1cccc(CN2CC=C(/C=C/c3ccc4c(Cl)cc(Cl)c(O)c4n3)CC2)c1 | 250 nM | Activity [4]: Active; Activity [5]: Active; Activity [6]: inactive; Activity [7]: inactive; Activity [8]: Active
Oc1c(Cl)cc(Cl)c2ccc(/C=C/C3=CCN(Cc4cccc(Cl)c4)CC3)nc12 | 330 nM | –
Oc1c(Cl)cc(Cl)c2ccc(/C=C/C3=CCN(Cc4ccc(F)cc4)CC3)nc12 | 270 nM | –
Oc1cccc2ccc(/C=C/C3=CCN(Cc4ccccc4Br)CC3)nc12 | 490 nM | –
